Source: PMC11481871, “Discovery of GuaB inhibitors with efficacy against Acinetobacter baumannii infection” (mBio, 2024)
Converted amounts (≈) assume the structure as drawn. “And” between values parts separate entries of the source, which are not always exact repeats. Equal entries are not always repeated. Where two headings read alike, the source gives them in different places.

How the values were obtained:
[1] = tested on: Escherichia coli; assay: MIC, CLSI microdilution; assay type: cell-based; settings: 20 h; Escherichia coli UPEC CFT073; M9 + casamino acids + glucose
[2] = tested on: carbapenem-resistant A. baumannii clinical isolates; assay: microbe, parasite or virus in culture; assay type: cell-based; settings: Acinetobacter baumannii
[3] = In vitro metabolism in mouse hepatocytes; assay type: in vitro ADME
Protocol: The incubation of G2 and G1 with cryopreserved mouse hepatocytes was conducted according to the standard in-house protocol. Cryopreserved hepatocytes were thawed using pre-warmed InVitroGRO HT thawing medium in 50 mL centrifuge tubes. The tubes were centrifuged for 3 min at 50 × g, and the supernatants were discarded. Cells were resuspended with 50 mL of pre-warmed Dulbecco’s modified eagle medium (DMEM) by gently inverting the tube several times. The tubes were centrifuged for 3 min at 50 × g, and the supernatants were discarded. Cells were brought up in 5.0 mL of pre-warmed DMEM incubation medium. The total cell counts and the number of viable cells were determined by the trypan blue exclusion method. Incubations were carried out in 20 mL scintillation vials containing 1.0 mL of hepatocyte suspension (approximately 1.3 × 10^6 cells/mL). The mouse hepatocytes were pre-incubated with or without 1 mM ABT or 4-MP for 15 min. Vials were spiked with G2 or G1 as a DMSO stock solution to a final concentration of 5 µM G2 or G1 and a final DMSO concentration of 0.1%. The scintillation vials were placed on an orbital shaker rotating at 16 rpm in a humidified incubator at 37°C, 5% CO2. The reaction was quenched with 4 mL of acetonitrile at 0 or 3 h. The hepatocyte samples were protein precipitated with 4 volumes of acetonitrile and centrifuged at 2,000 × g for 5 min. The resulting supernatant was reduced to a dry residue and reconstituted with 350 µL water:acetonitrile (2/1; vol/vol). All samples were analyzed by LC-MS/MS system.
Liquid chromatography (LC) equipment consisted of a CBM 20A Communications Module, NexeraX2 LC 30AD pumps, NexeraX2 SIL 30AC autosampler, CTO Prominence Column Oven from Shimadzu (Columbia, MD), and a 1290 Infinity DAD ultraviolet (UV) detector with a 60 mm flow cell from Agilent Technologies (Waldbronn, Germany). The LC column was an EVO C18 (1.9 µm, 2.1 × 100 mm) from Phenomenex. Mobile phase A was water with 0.1% formic acid and mobile phase B was acetonitrile with 0.1% formic acid. The flow rate was 400 µL/min and the injection volume was 10 µL. Column temperature was 40°C. Mass spectrometry was performed using a 5600 QTRAP mass spectrometer equipped with a TurboIonSpray from Applied Biosystems (Redwood City, CA). Various tandem mass spectrometry (MS/MS) functionalities were used for analysis, which included data-dependent time-of-flight (TOF) scans in a positive ion electrospray mode. The extracted ion chromatography traces were obtained following analysis of mouse hepatocyte incubations and were used to quantify the metabolites.

[4] = tested on: 41 different cellular targets; assay: Secondary pharmacology panel (Cerep Eurofins); assay type: binding; settings: for Hits (>50% Binding) / Hits (>75% Binding): 41 targets
[5] = tested on: Stenotrophomonas maltophilia; assay: MIC, CLSI microdilution; assay type: cell-based; settings: 20 h; Stenotrophomonas maltophilia (ATCC700267); M9 + casamino acids + glucose
[6] = tested on: A. baumannii 19606; assay: Fluctuation assay, frequency of spontaneous resistance; assay type: cell-based, Acinetobacter baumannii; settings: for frequency of on-target resistance mutations: A. baumannii, 4× or 8× MIC, p0 method; for F.O.R.: P0 method
[7] = tested on: A. baumannii 19606; assay: Neutropenic thigh infection model with i.v. GuaBi; settings: for bacterial load in thigh muscle: neutropenic CD-1 mice, A. baumannii 19606, i.v. infusion with PK boosters, 24 h, high dose groups; for free drug over serum-free MIC at which bactericidal: neutropenic thigh model, A. baumannii
[8] = tested on: Acinetobacter baumannii ATCC19606 GuaB mutants; assay: MIC on GuaBi-resistant A. baumannii 19606 guaB mutants; assay type: cell-based; settings: for MIC: Acinetobacter baumannii; for shifts in MIC conferred by on-target mutations: GuaBi-resistant mutants; for Fold shift in MIC vs parental wild-type / MIC of resistant mutant: from fluctuation assay
[9] = biological target: A. baumannii GuaB (Acinetobacter baumannii, UniProt D0CF46); assay: GuaB biochemical IC50
[10] = ATCC19606, read-out: A.b.19606 Average CLSI MIC (n=3), guaB allele P25A, M9 media
[11] = ATCC19606, read-out: A.b.19606 Average CLSI MIC (n=3), guaB allele P25S, M9 media
[12] = ATCC19606, read-out: A.b.19606 Average CLSI MIC (n=3), guaB allele Y445C, M9 media
[13] = ATCC19606, read-out: A.b.19606 Average CLSI MIC (n=3), guaB allele Y445N, M9 media
[14] = ATCC19606, read-out: A.b.19606 Average CLSI MIC (n=3), guaB allele Y445S, M9 media
[15] = ATCC19606, read-out: MIC of resistant mutant, resistance allele Y445S, from fluctuation assay

A. baumannii GuaB, sequence (D0CF46 entry or part of it): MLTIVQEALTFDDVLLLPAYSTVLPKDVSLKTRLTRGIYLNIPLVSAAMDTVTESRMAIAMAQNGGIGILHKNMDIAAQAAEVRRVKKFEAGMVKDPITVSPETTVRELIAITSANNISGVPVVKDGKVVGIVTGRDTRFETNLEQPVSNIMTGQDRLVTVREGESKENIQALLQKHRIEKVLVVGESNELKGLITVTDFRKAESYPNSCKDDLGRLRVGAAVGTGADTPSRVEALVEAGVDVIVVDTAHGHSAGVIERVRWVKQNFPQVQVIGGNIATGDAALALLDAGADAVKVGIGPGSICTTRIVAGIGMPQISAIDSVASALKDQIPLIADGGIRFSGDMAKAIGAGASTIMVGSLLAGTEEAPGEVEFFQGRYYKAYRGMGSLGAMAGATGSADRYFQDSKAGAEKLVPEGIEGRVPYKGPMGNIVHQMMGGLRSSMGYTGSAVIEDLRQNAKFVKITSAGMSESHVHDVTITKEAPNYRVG

SMILES: C[C@H](Nc1ccc2ncc3c(c2c1)CCOC3)C(=O)Nc1ccc(Cl)nc1 [G1, (2S)-N-(6-chloro-3-pyridyl)-2-(2,4-dihydro-1H-pyrano[3,4-c]quinolin-9 ylamino)propanamide]
- MIC [1]: > 100 µM
- MIC50 [2]: 3.1 µM (≈ 1.19 µg/mL)
- MIC90 [2]: 8 µM (≈ 3.06 µg/mL)
- clearance in mouse hepatocytes [3]: high clearance
- metabolism inhibited by ABT ([3]; 1 mM ABT): 39%
- in vitro safety profile: promiscuity [4]: low promiscuity
- in vitro safety profile: selectivity [4]: good selectivity
- Promiscuity Risk ([4]; 10µM): 0%
- Selectivity Risk ([4]; 10µM): 0%
- Hits (>50% Binding) ([4]; 10µM): 0
- Hits (>75% Binding) ([4]; 10µM): 0
- MIC [5]: 14 µM
- frequency of on-target resistance mutations [6]: 6.4 × 10^−11 to 2.9 × 10^−10
- bacterial load in thigh muscle [7]: reduced the bacterial load in thigh muscle compared to pre-treatment
- free drug over serum-free MIC at which bactericidal [7]: above 2 × Fu/MIC
- MIC [8, 10]: 6.3 µM (≈ 2.41 µg/mL)
- MIC [8, 11]: 2.6 µM (≈ 0.995 µg/mL)
- MIC [8, 12]: 1.6 µM (≈ 0.613 µg/mL)
- MIC [8, 13]: 41.7 µM (≈ 16 µg/mL)
- MIC [8, 14]: > 100 µM
- MIC ([8]; ATCC19606, read-out: MIC of resistant mutant, resistance allele Y445N, from fluctuation assay): 50 µM
- MIC [8, 15]: 50 µM
- shifts in MIC conferred by on-target mutations [8]: ≥ 32 fold
- GuaBi CLSI MIC fold change from parent strain ([8]; guaB allele P25A): 12
- GuaBi CLSI MIC fold change from parent strain ([8]; guaB allele P25S): 5
- GuaBi CLSI MIC fold change from parent strain ([8]; guaB allele Y445C): 3
- GuaBi CLSI MIC fold change from parent strain ([8]; guaB allele Y445N): 80
- GuaBi CLSI MIC fold change from parent strain ([8]; guaB allele Y445S): >200
- Fold shift in MIC vs parental wild-type ([8]; resistance allele Y445N): 64, 64 and 64
- MIC of resistant mutant ([8]; resistance allele Y445N): 50 µM
- Fold shift in MIC vs parental wild-type ([8]; resistance allele Y445S): 64, 64
- IC50 [9]: 0.26 nM

SMILES: C[C@H](Nc1ccc2ncc(CO)cc2c1)C(=O)Nc1ccc(Cl)c(N(C)C)c1 [G2, (2S)-N-[4-chloro-3-(dimethylamino)phenyl]-2-[[3-(hydroxymethyl)-6-quinolyl]amino]propanamide]
- MIC [1]: > 100 µM
- MIC50 [2]: 6.25 µM (≈ 2.49 µg/mL)
- MIC90 [2]: 16 µM (≈ 6.38 µg/mL)
- clearance in mouse hepatocytes [3]: high clearance
- metabolism inhibited by ABT and 4-MP ([3]; 1-aminobenzotriazole (ABT) and 4-methylpyrazole (4-MP)): 38%
- in vitro safety profile: promiscuity [4]: low promiscuity
- in vitro safety profile: selectivity [4]: good selectivity
- Promiscuity Risk ([4]; 10µM): 0%
- Selectivity Risk ([4]; 10µM): 0%
- Hits (>50% Binding) ([4]; 10µM): 0
- Hits (>75% Binding) ([4]; 10µM): 0
- Promiscuity Risk ([4]; 50µM): 0%
- Selectivity Risk ([4]; 50µM): 3%
- Hits (>50% Binding) ([4]; 50µM): 1
- Hits (>75% Binding) ([4]; 50µM): 0
- MIC [5]: 38 µM
- frequency of on-target resistance mutations [6]: 3.6 × 10^−10 to 5.1 × 10^−10
- F.O.R. ([6]; selection 4xMIC (G1 3.1µM; G2 6.4µM)): 3.60E-10
- F.O.R. ([6]; selection 8xMIC (12.8µM)): 5.10E-10
- bacterial load in thigh muscle [7]: reduced the bacterial load in thigh muscle compared to pre-treatment
- free drug over serum-free MIC at which bactericidal [7]: 5 × Fu/MIC
- MIC [8, 10]: 66.7 µM (≈ 26.6 µg/mL)
- MIC [8, 11]: 66.7 µM (≈ 26.6 µg/mL)
- MIC [8, 12]: 50 µM (≈ 19.9 µg/mL)
- MIC [8, 13]: > 100 µM
- MIC [8, 14]: > 100 µM
- MIC ([8]; ATCC19606, read-out: MIC of resistant mutant, resistance allele P25A, from fluctuation assay): 50 µM
- MIC ([8]; ATCC19606, read-out: MIC of resistant mutant, resistance allele P25S, from fluctuation assay): 50 µM
- MIC ([8]; ATCC19606, read-out: MIC of resistant mutant, resistance allele Y445C, from fluctuation assay): 50 µM
- MIC [8, 15]: 100 µM
- shifts in MIC conferred by on-target mutations [8]: ≥ 32 fold
- GuaBi CLSI MIC fold change from parent strain ([8]; guaB allele P25A): 16
- GuaBi CLSI MIC fold change from parent strain ([8]; guaB allele P25S): 16
- GuaBi CLSI MIC fold change from parent strain ([8]; guaB allele Y445C): 12
- GuaBi CLSI MIC fold change from parent strain ([8]; guaB allele Y445N): >25
- GuaBi CLSI MIC fold change from parent strain ([8]; guaB allele Y445S): >25
- Fold shift in MIC vs parental wild-type ([8]; resistance allele P25A): 32, 32, 32
- Fold shift in MIC vs parental wild-type ([8]; resistance allele P25S): 32, 32, 32 and 32
- MIC of resistant mutant ([8]; resistance allele P25S): 50 µM
- Fold shift in MIC vs parental wild-type ([8]; resistance allele Y445C): 32, 32, 32 and 64
- MIC of resistant mutant ([8]; resistance allele Y445C): 100 µM
- Fold shift in MIC vs parental wild-type ([8]; resistance allele Y445S): 64
- IC50 [9]: 0.63 nM

SMILES: C[C@@H](Oc1ccc2ncc3c(c2c1)CCOC3)c1cncc(-c2nc(Cl)c[nH]2)c1 [G8, (R)-9-[1-[5-(4-chloro-1H-imidazol-2-yl)-3-pyridyl]ethoxy]-2,4-dihydro-1H-pyrano[3,4 c]quinoline]
- MIC [1]: > 100 µM
- in vitro safety profile: promiscuity [4]: high promiscuity risk
- in vitro safety profile: selectivity [4]: off-target selectivity
- Promiscuity Risk ([4]; 50µM): 51%
- Selectivity Risk ([4]; 50µM): 17%
- Hits (>50% Binding) ([4]; 50µM): 21
- Hits (>75% Binding) ([4]; 50µM): 7
- MIC [5]: 5 µM
- MIC [8, 10]: 0.8 µM (≈ 0.325 µg/mL)
- MIC [8, 11]: 0.6 µM (≈ 0.244 µg/mL)
- MIC [8, 12]: 0.2 µM (≈ 0.0814 µg/mL)
- MIC [8, 13]: 1.8 µM (≈ 0.732 µg/mL)
- MIC [8, 14]: 8.3 µM (≈ 3.38 µg/mL)
- GuaBi CLSI MIC fold change from parent strain ([8]; guaB allele P25A): 3.3
- GuaBi CLSI MIC fold change from parent strain ([8]; guaB allele P25S): 2.5
- GuaBi CLSI MIC fold change from parent strain ([8]; guaB allele Y445C): 1
- GuaBi CLSI MIC fold change from parent strain ([8]; guaB allele Y445N): 7
- GuaBi CLSI MIC fold change from parent strain ([8]; guaB allele Y445S): 32
- IC50 [9]: 0.14 nM
